Experimental data as given in US20070003510A1, “Preparations containing an extract of eperua falcata and/or constituents of the latter” (priority 2003, published 2007).

Assays:
Type in all cases: cell-based
CGRP = experiment: Quantity of neuropeptide CGRP released by neurone culture, ELISA (spontaneous, KCl- or capsaicin-stimulated); conditions: KCl 40 mM alone, 20 mins; based on the standard (no test substance) = 100
PGE2 = experiment: Protection against UV-B radiation: PGE2 release from human keratinocytes, ELISA; conditions: 0.003%, UV-B 50 mJ/cm^2, UV-B alone = 100, no UV-B = 0
From the text: UV-B radiation (wavelength 280 to 320 nm) causes inflammation of the skin, mainly by activation of an enzyme (phospholipase A2 or PLA2) which releases arachidonic acid from the cell membrane (V. A. De Leo, D. Hanson, I. B. Weinstein and L. C. Harber, Ultraviolet radiation stimulates the release of arachidonic acid from mammalian cells in culture, Photochemistry and Photobiology (1985), Vol. 41, No. 1, pages 51 to 56). Other enzymes (so-called cyclo-oxygenases) then convert the arachidonic acid into active components, so-called prostaglandin (PG for short). The prostaglandin is secreted by the cells. The fixing of certain prostaglandins (PGE2) to specific receptors of the skin leads to reddening and swelling of the skin in the same way as sunburn does.
(§1) Human keratinocytes were incubated for three days at 37° C. in an atmosphere containing 5% by volume carbon dioxide (standard nutrient medium containing foetal calf serum (FCS)). The nutrient medium was then replaced by an isotonic common salt solution containing the substance to be tested (astilbin or engeletin). The keratinocytes were exposed to UV-B radiation (50 mJ/cm^2, DUKE GL40E lamp), followed by incubation for one day at 37° C. in an atmosphere containing 5% by volume carbon dioxide. The supernatant nutrient medium was spectroscopically analyzed for LDH2 and PEG2 by the ELISA method.
(§2) The results are set out in the following Table (% by comparison with the control test).

human keratinocytes = experiment: Protection against UV-B radiation: LDH release from human keratinocytes; conditions: 0.003%, UV-B 50 mJ/cm^2, UV-B alone = 100, no UV-B = 0
Method: In cultured human cells, these effects of UV-B radiation on the cell membranes are associated with the release of a cytoplasmatic enzyme into the supernatant solution. This cytoplasmatic enzyme is lactate dehydrogenase or LDH (B. Bonnekoh, B. Farkas, J. Geisel and G. Mahrle, Lactate dehydrogenase release as an indicator of dithranol-induced membrane injury in cultured human keratinocytes, Dermatological Research (1990), Vol. 282, pages 325-331).
as §1, §2

human PMNs = experiment: Respiratory burst: reactive oxygen compounds (ROS) of zymosan-activated human PMNs, luminol luminescence; conditions: for Content of reactive oxygen compounds (ROS) (% versus control): 24 h incubation, zymosan activation; for Effectiveness in suppressing inflammatory processes: in words, effectiveness increases with the quantity used
From the text: In the course of cutaneous inflammation, leucocytes, for example polymorphonuclear neutrophilic granulocytes (PMNs), are attracted and stimulated by peptides, such as cytokines and other messenger substances such as, for example, leudotrienes released from activated or necrotic cells in the dermis. These stimulated PMNs secrete not only pro-inflammatory cytokines, leucotrienes and proteases, but also reactive oxygen compounds (ROS), such as superoxides and hypochlorite anions for example. This is done to destroy pathogenic bacteria or fungi. This activity of the PMNs is known as respiratory burst and intensifies the inflammation reaction and causes tissue damage through released ROS and lysosomal enzymes.
Particulars of the test procedure can be found in the article by Kapp et al. entitled “The role of immunomodulating cytokines, activation of the oxidative metabolism in human polymorphonuclear neutrophilic granulocytes, Journal of Investigative Dermatology, Vol. 95, pages 94S to 99S, 1990”.
A suspension of human PMNs (1 million cells per milliliter) was exposed to the substances to be tested (incubation for 24 h at 37° C. in an atmosphere containing 5% by volume CO2). The number of PMN cells was determined. The PMNs were activated with 0.1 ml zymosan (an insoluble carbohydrate from the cell wall of yeast), followed by incubation for 0.5 h at 37° C. in an atmosphere containing 5% by volume CO2).
The results are set out in the following Table (% by comparison with the control test). The quantity of ROS was measured with luminol; luminescence was determined for 60 seconds.

Structure (SMILES)	CGRP (CGRP)	Quantity of PGE2 in %/(control without UV-B exposure) (PGE2)	Quantity of PGE2 in %/(control without UV-B exposure) (PGE2; listed as engeletin)	Quantity of LDH in %/(control without UV-B exposure) (human keratinocytes)	Quantity of LDH in %/(control without UV-B exposure) (human keratinocytes; listed as engeletin)	Content of reactive oxygen compounds (ROS) (% versus control) (human PMNs; dose 0.001%)	Content of reactive oxygen compounds (ROS) (% versus control) (human PMNs; dose 0.003%)	Content of reactive oxygen compounds (ROS) (% versus control) (human PMNs; dose 0.01%)	Effectiveness in suppressing inflammatory processes (human PMNs)	Quantity of PGE2 in %/(control without UV-B exposure) (PGE2; listed as astilbin)	Quantity of LDH in %/(control without UV-B exposure) (human keratinocytes; listed as astilbin)	Content of reactive oxygen compounds (ROS) (% versus control) (human PMNs; dose 0.0003%)
[Cl-].[K+] [KCl, potassium chloride]	554 ± 8											
CC1OC(OC2C(=O)c3c(O)cc(O)cc3OC2c2ccc(O)cc2)C(O)C(O)C1O (centres unmarked) [Pure engeletin, engeletin]		35%	the effect is not as pronounced	47%	the effect is not as pronounced	65 % versus control	50 % versus control	25 % versus control	very effective			
C[C@@H]1O[C@@H](O[C@H]2C(=O)c3c(O)cc(O)cc3O[C@@H]2c2ccc(O)c(O)c2)[C@H](O)[C@H](O)[C@H]1O [Pure astilbin, astilbin]		58%		58%		26 % versus control	14 % versus control		very effective	reduced	reduced	47 % versus control
